The results in this text go back to patent US20220402925A1, “COMPOUNDS AND METHODS FOR THE TREATMENT OF CYSTIC FIBROSIS” (Flatley Discovery Lab, LLC, priority 2019, published 2022).

T1 sequence (P13569 with tags, fused parts or gaps DEL508-508): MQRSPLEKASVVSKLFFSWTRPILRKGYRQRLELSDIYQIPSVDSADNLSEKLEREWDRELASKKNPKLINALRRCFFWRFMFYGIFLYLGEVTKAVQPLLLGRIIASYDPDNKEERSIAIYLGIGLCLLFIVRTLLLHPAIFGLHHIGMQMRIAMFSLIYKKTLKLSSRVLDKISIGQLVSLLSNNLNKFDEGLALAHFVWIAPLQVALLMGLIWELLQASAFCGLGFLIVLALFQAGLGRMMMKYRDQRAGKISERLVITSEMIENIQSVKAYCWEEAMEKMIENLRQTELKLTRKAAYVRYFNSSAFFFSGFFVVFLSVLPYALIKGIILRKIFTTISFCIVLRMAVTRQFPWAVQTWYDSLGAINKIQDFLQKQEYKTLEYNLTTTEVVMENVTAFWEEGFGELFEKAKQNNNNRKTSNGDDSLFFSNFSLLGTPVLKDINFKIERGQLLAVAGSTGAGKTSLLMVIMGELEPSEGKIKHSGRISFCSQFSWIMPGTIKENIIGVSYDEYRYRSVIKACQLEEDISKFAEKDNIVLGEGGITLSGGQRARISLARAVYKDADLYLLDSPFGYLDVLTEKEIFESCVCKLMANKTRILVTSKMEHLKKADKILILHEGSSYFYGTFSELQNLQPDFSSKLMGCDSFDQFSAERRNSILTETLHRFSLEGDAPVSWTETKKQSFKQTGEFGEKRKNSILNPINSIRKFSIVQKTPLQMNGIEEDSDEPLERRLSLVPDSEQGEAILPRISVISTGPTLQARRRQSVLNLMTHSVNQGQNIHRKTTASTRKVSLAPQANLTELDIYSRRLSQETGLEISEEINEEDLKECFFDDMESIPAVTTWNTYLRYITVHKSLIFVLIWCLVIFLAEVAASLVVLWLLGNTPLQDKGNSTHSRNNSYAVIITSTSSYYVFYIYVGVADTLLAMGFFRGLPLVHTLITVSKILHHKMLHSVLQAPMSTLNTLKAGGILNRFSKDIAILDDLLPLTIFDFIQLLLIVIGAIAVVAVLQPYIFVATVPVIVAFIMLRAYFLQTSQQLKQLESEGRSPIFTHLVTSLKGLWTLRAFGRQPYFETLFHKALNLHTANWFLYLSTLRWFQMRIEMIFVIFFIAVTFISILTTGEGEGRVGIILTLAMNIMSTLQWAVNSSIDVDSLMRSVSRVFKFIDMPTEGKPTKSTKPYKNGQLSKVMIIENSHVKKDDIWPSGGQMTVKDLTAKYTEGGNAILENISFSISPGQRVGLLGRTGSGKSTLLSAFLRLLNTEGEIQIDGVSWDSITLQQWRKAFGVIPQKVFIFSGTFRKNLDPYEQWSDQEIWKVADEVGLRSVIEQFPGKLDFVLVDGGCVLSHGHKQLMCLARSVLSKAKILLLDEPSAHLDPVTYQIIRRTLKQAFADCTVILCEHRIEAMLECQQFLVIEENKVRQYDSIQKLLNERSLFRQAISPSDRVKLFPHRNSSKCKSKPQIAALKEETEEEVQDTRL

The assay addresses T1, F508del CFTR (Homo sapiens, UniProt P13569, DEL508-508).
T1 construct: Primary CF airway epithelial cells were obtained from the UNC Cystic Fibrosis Tissue Procurement and Cell Culture Core; host or cells: primary CF airway epithelial cells
Put plainly: Equivalent current assay in primary CF airway epithelial cells (Corrector Activity, NAUC normalized to 3 μM VX809). Format: cell-based. Conditions: NAUC as % of positive control (VX-809). In a few lines:
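Differentiated primary CF airway cells treated basolaterally 24 h at 37° C with compound (0.1% DMSO). Equivalent current recorded after 5 μM benzamil, stimulation with 10 μM forskolin plus 1 μM VX-770 or 3 μM FDL176, and block by 20 μM CFTR-172; vehicle-subtracted AUC normalized to 3 μM VX809; EC50 from sigmoid fit, Hill slope 1.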
As for `CN(C(=O)Cn1nc(-c2cccc(C#N)c2)c2oc(CN3CCOCC3)cc2c1=O)c1ccc2c(c1)OC(F)(F)O2` [Example 199], the “Corr Activity (NAUC)” value is listed as “+ (NAUC<40% of positive control)”.

On to `O=C(Cn1nc(-c2cc(C(F)(F)F)cc(C(F)(F)F)c2)c2[nH]cnc2c1=O)N(c1ccc2c(c1)OC(F)(F)O2)C1CC1` [Example 382], for which the “Corr Activity (NAUC)” value is “+ (NAUC<40% of positive control)”.

Take `Cc1cc(C#N)cc(-c2nn(CC(=O)N(C)c3ccc4c(c3)OC(F)(F)O4)c(=O)c3nc[nH]c23)c1` [Example 247]: the “Corr Activity (NAUC)” value is “+++ (NAUC>70% of positive control)”.

On to `CCN(C(=O)Cn1nc(-c2cc(F)cc(C#N)c2)c2oc(C(=O)NC(C)(C)C)cc2c1=O)c1ccc2c(c1C)OC(F)(F)O2` [Example 140], for which the “Corr Activity (NAUC)” value is reported as “++ (NAUC 70-40% of positive control)”.

Consider `CCN(C(=O)Cn1nc(-c2cc(C#N)cc(OC)c2)c2occc2c1=O)c1ccc2c(c1)OC(F)(F)O2` [Example 110], for which the “Corr Activity (NAUC)” value was “+++ (NAUC>70% of positive control)”.

For `O=C(Cn1nc(-c2cc(F)cc(F)c2)c2[nH]cnc2c1=O)N(c1ccc2c(c1)OC(F)(F)O2)C1CC1` [Example 380], the “Corr Activity (NAUC)” value is on record as “++ (NAUC 70-40% of positive control)”.

As to `CCN(C(=O)Cn1nc(-c2cccc(OC(F)(F)F)c2)c2occc2c1=O)c1ccc2nc(C)oc2c1` [Example 94], the “Corr Activity (NAUC)” value is listed as “++ (NAUC 70-40% of positive control)”.

For the molecule `CN(C(=O)Cn1nc(-c2cccc(C(C)(C)C)c2)c2oc(C(=O)NC(C)(C)C)cc2c1=O)c1ccc2c(c1)OC(F)(F)O2` [Example 126], the “Corr Activity (NAUC)” value was “+++ (NAUC>70% of positive control)”.

`CN(C(=O)Cn1nc(-c2cccc(C(C)(C)C)c2)c2occc2c1=O)c1ccc2c(c1)OC(F)(F)O2` [Example 87]: the “Corr Activity (NAUC)” value is recorded as “+ (NAUC<40% of positive control)”.

Consider `CCN(C(=O)Cn1nc(-c2ccc(C(F)(F)F)c(Cl)c2)c2[nH]cnc2c1=O)c1ccc2c(c1)OC(F)(F)O2` [Example 328], for which the “Corr Activity (NAUC)” value is given as “+ (NAUC<40% of positive control)”.

For the molecule `N#Cc1cccc(-c2nn(CC(=O)N3CCCc4c3ccc3c4OC(F)(F)O3)c(=O)c3nc[nH]c23)c1` [Example 375], the “Corr Activity (NAUC)” value is “+++ (NAUC>70% of positive control)”.

`O=C(Cn1nc(-c2ccc(C(F)(F)F)c(Cl)c2)c2[nH]cnc2c1=O)N(c1ccc2c(c1)OC(F)(F)O2)C1CC1` [Example 448]: the “Corr Activity (NAUC)” value was “+ (NAUC<40% of positive control)”.

With `CCN(C(=O)Cn1nc(-c2cccc(Cl)c2)c2[nH]ncc2c1=O)c1ccc2c(c1)OC(F)(F)O2` [Example 500], the “Corr Activity (NAUC)” value is “++ (NAUC 70-40% of positive control)”.

As to `CCN(C(=O)Cn1nc(-c2cc(F)cc(C#N)c2)c2oc(C3CC3)cc2c1=O)c1ccc2c(c1)OC(F)(F)O2` [Example 225], the “Corr Activity (NAUC)” value is reported as “+++ (NAUC>70% of positive control)”.

In the case of `CCN(C(=O)Cn1nc(-c2cc(C)cc(C#N)c2)c2oc(C(F)F)cc2c1=O)c1ccc2c(c1)OC(F)(F)O2` [Example 189], the “Corr Activity (NAUC)” value is on record as “+++ (NAUC>70% of positive control)”.

On to `CN(C(=O)Cn1nc(-c2cccc(C#N)c2)c2cn[nH]c2c1=O)c1ccc2c(c1)OC(F)(F)O2` [Example 494], for which the “Corr Activity (NAUC)” value was “++ (NAUC 70-40% of positive control)”.

As to `CCN(C(=O)Cn1nc(-c2cc(C#N)cc(C(F)(F)F)c2)c2[nH]cnc2c1=O)c1ccc2c(c1)OC(F)(F)O2` [Example 281], the “Corr Activity (NAUC)” value was “+++ (NAUC>70% of positive control)”.

With `CN(C(=O)Cn1nc(-c2cc(C#N)cc(C(F)F)c2)c2occc2c1=O)c1ccc2c(c1F)OC(F)(F)O2` [Example 101], the “Corr Activity (NAUC)” value was “+++ (NAUC>70% of positive control)”.

Take `CCN(C(=O)Cn1nc(-c2cc(C(C)(C)C)cc(C(C)(C)C)c2)c2[nH]cnc2c1=O)c1ccc2c(c1)OC(F)(F)O2` [Example 280]: the “Corr Activity (NAUC)” value is listed as “+ (NAUC<40% of positive control)”.

`CCN(C(=O)Cn1nc(-c2cccc(C#N)c2)c2[nH]ccc2c1=O)c1ccc2c(c1)OC(F)(F)O2` [Example 503]: the “Corr Activity (NAUC)” value is listed as “+++ (NAUC>70% of positive control)”.

On to `Cc1cc2c(cc1N(C)C(=O)Cn1nc(-c3cccc(C#N)c3)c3occc3c1=O)OC(F)(F)O2` [Example 44], for which the “Corr Activity (NAUC)” value is “+++ (NAUC>70% of positive control)”.

For `CCN(C(=O)Cn1nc(-c2cc(C#N)cc(OC(F)(F)F)c2)c2[nH]cnc2c1=O)c1ccc2c(c1)OC(F)(F)O2` [Example 285], the “Corr Activity (NAUC)” value is “+++ (NAUC>70% of positive control)”.

Take `CCN(C(=O)Cn1nc(-c2cccc(Cl)c2)c2[nH]ccc2c1=O)c1ccc2c(c1)OC(F)(F)O2` [Example 502]: the “Corr Activity (NAUC)” value was “+++ (NAUC>70% of positive control)”.

As for `CCN(C(=O)Cn1nc(-c2cc(Cl)cc(OCc3ccccc3)c2)c2[nH]cnc2c1=O)c1ccc2c(c1)OC(F)(F)O2` [Example 273], the “Corr Activity (NAUC)” value was “+++ (NAUC>70% of positive control)”.

Consider `CCN(C(=O)Cn1nc(-c2cc(OC)cc(C(F)(F)F)c2)c2[nH]cnc2c1=O)c1ccc2c(c1)OC(F)(F)O2` [Example 265], for which the “Corr Activity (NAUC)” value is recorded as “+ (NAUC<40% of positive control)”.

For `CCN(C(=O)Cn1nc(-c2cc(F)cc(F)c2)c2oc(C)cc2c1=O)c1ccc2c(c1)OC(F)(F)O2` [Example 74], the “Corr Activity (NAUC)” value is “+++ (NAUC>70% of positive control)”.

On to `CCN(C(=O)Cn1nc(-c2cc(C#N)cc(C(C)(C)C)c2)c2occc2c1=O)c1ccc2c(c1)OC(F)(F)O2` [Example 111], for which the “Corr Activity (NAUC)” value is “+++ (NAUC>70% of positive control)”.

Take `CN(C(=O)Cn1nc(-c2cccc(C#N)c2)c2occc2c1=O)c1ccc2c(c1F)OC(F)(F)O2` [Example 59]: the “Corr Activity (NAUC)” value was “+++ (NAUC>70% of positive control)”.

With `CC(C)Oc1cc(-c2nn(CC(=O)N(c3ccc4c(c3)OC(F)(F)O4)C3CC3)c(=O)c3nc[nH]c23)cc(C(F)(F)F)c1` [Example 377], the “Corr Activity (NAUC)” value is “+ (NAUC<40% of positive control)”.

Regarding `CCN(C(=O)Cn1nc(-c2cc(C)cc(C#N)c2)c2occc2c1=O)c1ccc2c(c1)OC(F)(F)O2` [Example 84], the “Corr Activity (NAUC)” value is “+++ (NAUC>70% of positive control)”.

As for `CCN(C(=O)Cn1nc(-c2cc(Cl)cc(CO)c2)c2[nH]cnc2c1=O)c1ccc2c(c1)OC(F)(F)O2` [Example 282], the “Corr Activity (NAUC)” value was “+ (NAUC<40% of positive control)”.

Regarding `CCN(C(=O)Cn1nc(-c2cc(OC)cc(OC(F)(F)F)c2)c2[nH]cnc2c1=O)c1ccc2c(c1)OC(F)(F)O2` [Example 274], the “Corr Activity (NAUC)” value is listed as “+ (NAUC<40% of positive control)”.

For the molecule `CCN(C(=O)Cn1nc(-c2cc(C)cc(C#N)c2)c2oc(C(=O)NC3(C(F)(F)F)CC3)cc2c1=O)c1ccc2c(c1)OC(F)(F)O2` [Example 152], the “Corr Activity (NAUC)” value is listed as “+++ (NAUC>70% of positive control)”.

With `N#Cc1cc(-c2nn(CC(=O)N(c3ccc4c(c3)OC(F)(F)O4)C3CC3)c(=O)c3nc[nH]c23)ccc1N1CCCCC1` [Example 491], the “Corr Activity (NAUC)” value is given as “++ (NAUC 70-40% of positive control)”.

As for `CCN(C(=O)Cn1nc(-c2ccc(OCC(F)(F)F)c(F)c2)c2[nH]cnc2c1=O)c1ccc2c(c1)OC(F)(F)O2` [Example 339], the “Corr Activity (NAUC)” value was “++ (NAUC 70-40% of positive control)”.

Turning to `O=C(Cn1nc(-c2cc(O)cc(OC(F)(F)F)c2)c2[nH]cnc2c1=O)N(c1ccc2c(c1)OC(F)(F)O2)C1CC1` [Example 407], the “Corr Activity (NAUC)” value is listed as “+ (NAUC<40% of positive control)”.

Regarding `N#Cc1cc(-c2nn(CC(=O)N(c3ccc4c(c3)OC(F)(F)O4)C3CC3)c(=O)c3nc[nH]c23)ccc1N1CCC(F)C1` (stereo not drawn) [Example 488], the “Corr Activity (NAUC)” value is given as “+++ (NAUC>70% of positive control)”.

`CCN(C(=O)Cn1nc(-c2cc(Cl)cc(Cl)c2)c2occc2c1=O)c1ccc2c(c1)OC(F)(F)O2` [Example 174]: the “Corr Activity (NAUC)” value is reported as “++ (NAUC 70-40% of positive control)”.

For the molecule `Cc1c(N(C)C(=O)Cn2nc(-c3cc(Cl)cc(C#N)c3)c3occc3c2=O)ccc2c1OC(F)(F)O2` [Example 171], the “Corr Activity (NAUC)” value is on record as “+++ (NAUC>70% of positive control)”.

Take `N#Cc1cccc(-c2nn(CC(=O)N(c3ccc4c(c3)OC(F)(F)O4)C3CC3)c(=O)c3nc[nH]c23)c1` [Example 372]: the “Corr Activity (NAUC)” value was “+++ (NAUC>70% of positive control)”.

Turning to `CCN(C(=O)Cn1nc(-c2cc(F)cc(C#N)c2)c2occc2c1=O)c1ccc2c(c1C)OC(F)(F)O2` [Example 173], the “Corr Activity (NAUC)” value was “+++ (NAUC>70% of positive control)”.

Take `CCN(C(=O)Cn1nc(-c2ccc3c(ccn3C)c2)c2[nH]cnc2c1=O)c1ccc2c(c1)OC(F)(F)O2` [Example 290]: the “Corr Activity (NAUC)” value is “+ (NAUC<40% of positive control)”.

Consider `O=C(Cn1nc(-c2ccc(OCC3CC3)c(Cl)c2)c2[nH]cnc2c1=O)N(c1ccc2c(c1)OC(F)(F)O2)C1CC1` [Example 465], for which the “Corr Activity (NAUC)” value is listed as “++ (NAUC 70-40% of positive control)”.

As for `Cc1cc2c(cc1N(C)C(=O)Cn1nc(-c3cc(Cl)cc(C#N)c3)c3occc3c1=O)OC(F)(F)O2` [Example 168], the “Corr Activity (NAUC)” value was “+++ (NAUC>70% of positive control)”.

Consider `O=C(Cn1nc(-c2cc(Cl)cc(CO)c2)c2[nH]cnc2c1=O)N(c1ccc2c(c1)OC(F)(F)O2)C1CC1` [Example 405], for which the “Corr Activity (NAUC)” value was “+ (NAUC<40% of positive control)”.

`CC(C)Oc1ccc(-c2nn(CC(=O)N(c3ccc4c(c3)OC(F)(F)O4)C3CC3)c(=O)c3nc[nH]c23)cc1Cl` [Example 446]: the “Corr Activity (NAUC)” value is reported as “+++ (NAUC>70% of positive control)”.

As for `CCN(C(=O)Cn1nc(-c2cc(Cl)cc(C#N)c2)c2oc(C(F)F)cc2c1=O)c1cc2c(cc1C)OC(F)(F)O2` [Example 194], the “Corr Activity (NAUC)” value is on record as “+++ (NAUC>70% of positive control)”.

Consider `CC(C)(C)NC(=O)c1cc2c(=O)n(CC(=O)N3CCCc4c3ccc3c4OC(F)(F)O3)nc(-c3cccc(C#N)c3)c2o1` [Example 129], for which the “Corr Activity (NAUC)” value is “++ (NAUC 70-40% of positive control)”.
